Laboratory results reported in patent publication US12599136B2, “Substituted isophthalic acid diamides and their use as herbicides” (Bayer Aktiengesellschaft, priority 2020, dated 2026).

Legend:
Type in all cases: in vivo
Polygonum convolvulus [1] = assay: Pre-emergence herbicidal action against POLCO; details: 320 g/ha
Procedure, shortened: (§1)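 Herbicidal effect was assessed 3 weeks after treatment by visual comparison with untreated controls, 100% denoting dead plants. Aqueous WP or EC preparations had been applied at 600 to 800 l/ha with 0.2% wetting agent to the soil covering freshly sown seeds.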

Veronica persica [2] = assay: Pre-emergence herbicidal action against VERPE; details: 320 g/ha
Procedure, shortened: as §1

Viola tricolor [3] = assay: Pre-emergence herbicidal action against VIOTR
Procedure, shortened: as §1

Setaria viridis [4] = assay: Pre-emergence herbicidal action against SETVI
Procedure, shortened: as §1

Setaria viridis [5] = assay: Post-emergence herbicidal action against SETVI; details: visual assessment about 3 weeks after treatment
Procedure, shortened: (§2)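 Post-emergence greenhouse test; one-leaf stage, 2–3 wk post-sowing, sandy loam. Foliar spray of WP/EC in water, 600–800 l/ha, +0.2% wetting agent. Visual % action at ~3 wk vs untreated (100% = plants dead).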

Amaranthus retroflexus [6] = assay: Pre-emergence herbicidal action against AMARE; details: visual score after 3 weeks vs untreated controls
Procedure, shortened: as §1

Matricaria inodora [7] = assay: Post-emergence herbicidal action against MATIN; details: visual assessment about 3 weeks after treatment
Procedure, shortened: as §2

Echinochloa crus-galli [8] = assay: Pre-emergence herbicidal action against ECHCG; details: visual score after 3 weeks vs untreated controls
Procedure, shortened: as §1

Avena fatua [9] = assay: Pre-emergence herbicidal action against AVEFA; details: visual score after 3 weeks vs untreated controls
Procedure, shortened: as §1

Stellaria media [10] = assay: Pre-emergence herbicidal action against STEME
Procedure, shortened: as §1

Matricaria inodora [11] = assay: Pre-emergence herbicidal action against MATIN; details: visual score after 3 weeks vs untreated controls
Procedure, shortened: as §1

Veronica persica [12] = assay: Post-emergence herbicidal action against VERPE; details: 80 g/ha, visual assessment about 3 weeks after treatment
Procedure, shortened: as §2

Polygonum convolvulus [13] = assay: Post-emergence herbicidal action against POLCO; details: 80 g/ha, visual assessment about 3 weeks after treatment
Procedure, shortened: as §2

Avena fatua [14] = assay: Post-emergence herbicidal action against AVEFA; details: visual assessment about 3 weeks after treatment
Procedure, shortened: as §2

Pharbitis purpurea [15] = assay: Post-emergence herbicidal action against PHBPU; details: visual assessment about 3 weeks after treatment
Procedure, shortened: as §2

Hordeum murinum [16] = assay: Pre-emergence herbicidal action against HORMU; details: visual score after 3 weeks vs untreated controls
Procedure, shortened: as §1

Alopecurus myosuroides [17] = assay: Post-emergence herbicidal action against ALOMY
Procedure, shortened: as §2

Pharbitis purpurea [18] = assay: Pre-emergence herbicidal action against PHBPU; details: visual score after 3 weeks vs untreated controls
Procedure, shortened: as §1

Cyperus esculentus [19] = assay: Pre-emergence herbicidal action against CYPES; details: visual score after 3 weeks vs untreated controls
Procedure, shortened: as §1

Alopecurus myosuroides [20] = assay: Pre-emergence herbicidal action against ALOMY; details: visual score after 3 weeks vs untreated controls
Procedure, shortened: as §1

Abutilon theophrasti [21] = assay: Post-emergence herbicidal action against ABUTH
Procedure, shortened: as §2

Amaranthus retroflexus [22] = assay: Post-emergence herbicidal action against AMARE; details: visual assessment about 3 weeks after treatment
Procedure, shortened: as §2

Viola tricolor [23] = assay: Post-emergence herbicidal action against VIOTR
Procedure, shortened: as §2

Lolium rigidum [24] = assay: Post-emergence herbicidal action against LOLRI
Method: Seeds of monocotyledonous and dicotyledonous weed and crop plants are laid out in sandy loam soil in wood-fiber pots, covered with soil and cultivated in a greenhouse under good growth conditions. 2 to 3 weeks after sowing, the test plants are treated at the one-leaf stage. The compounds of the invention, formulated in the form of wettable powders (WP) or as emulsion concentrates (EC), are then sprayed onto the green parts of the plants in the form of an aqueous suspension or emulsion at a water application rate equivalent to 600 to 800 l/ha, with addition of 0.2% wetting agent. After the test plants have been left to stand in the greenhouse under optimal growth conditions for about 3 weeks, the action of the preparations is assessed visually in comparison to untreated controls (herbicidal action in percent (%): 100% activity=the plants have died, 0% activity=like control plants). […] The tables below illustrate, in an illustrative manner, the post-emergence herbicidal action of the compounds of the invention, the herbicidal activity being stated in percent.

Hordeum murinum [25] = assay: Post-emergence herbicidal action against HORMU
Procedure, shortened: as §2

Abutilon theophrasti [26] = assay: Pre-emergence herbicidal action against ABUTH; details: visual score after 3 weeks vs untreated controls
Procedure, shortened: as §1

Lolium rigidum [27] = assay: Pre-emergence herbicidal action against LOLRI; details: 320 g/ha
Procedure, shortened: as §1

Echinochloa crus-galli [28] = assay: Post-emergence herbicidal action against ECHCG; details: visual assessment about 3 weeks after treatment
Procedure, shortened: as §2

Stellaria media [29] = assay: Post-emergence herbicidal action against STEME; details: visual assessment about 3 weeks after treatment
Procedure, shortened: as §2

Cyperus esculentus [30] = assay: Post-emergence herbicidal action against CYPES; details: 80 g/ha, visual assessment about 3 weeks after treatment
Procedure, shortened: as §2

## CCN(C)C(=O)c1c(C(F)(F)F)ccc(C(=O)Nc2nnnn2CC)c1Cl [Example 2-124]
Polygonum convolvulus [1]
  Pre-emergence action against POLCO: 80%
Veronica persica [2]
  Pre-emergence action against VERPE: 100%
Viola tricolor [3]; 20 g/ha
  Pre-emergence action against VIOTR: 80%
Viola tricolor [3]; 80 g/ha
  Pre-emergence action against VIOTR: 80%
Viola tricolor [3]; 320 g/ha
  Pre-emergence action against VIOTR: 100%
Setaria viridis [4]; 20 g/ha
  Pre-emergence action against SETVI: 90%
Setaria viridis [4]; 80 g/ha
  Pre-emergence action against SETVI: 100%
Setaria viridis [4]; 320 g/ha
  Pre-emergence action against SETVI: 100%
Setaria viridis [5]; 5 g/ha
  Post-emergence action against SETVI in %: 100%
Setaria viridis [5]; 20 g/ha
  Post-emergence action against SETVI in %: 100%
Setaria viridis [5]; 80 g/ha
  Post-emergence action against SETVI in %: 100%
Amaranthus retroflexus [6]; 20 g/ha
  Pre-emergence action against AMARE: 90%
Amaranthus retroflexus [6]; 80 g/ha
  Pre-emergence action against AMARE: 100%
Amaranthus retroflexus [6]; 320 g/ha
  Pre-emergence action against AMARE: 100%
Matricaria inodora [7]; 5 g/ha
  Post-emergence action against MATIN in %: 90%
Matricaria inodora [7]; 20 g/ha
  Post-emergence action against MATIN in %: 100%
Matricaria inodora [7]; 80 g/ha
  Post-emergence action against MATIN in %: 100%
Echinochloa crus-galli [8]; 80 g/ha
  Pre-emergence action against ECHCG: 90%
Echinochloa crus-galli [8]; 320 g/ha
  Pre-emergence action against ECHCG: 100%
Avena fatua [9]; 80 g/ha
  Pre-emergence action against AVEFA: 90%
Avena fatua [9]; 320 g/ha
  Pre-emergence action against AVEFA: 100%
Stellaria media [10]; 20 g/ha
  Pre-emergence action against STEME: 90%
Stellaria media [10]; 80 g/ha
  Pre-emergence action against STEME: 90%
Stellaria media [10]; 320 g/ha
  Pre-emergence action against STEME: 90%
Matricaria inodora [11]; 20 g/ha
  Pre-emergence action against MATIN: 80%
Matricaria inodora [11]; 80 g/ha
  Pre-emergence action against MATIN: 90%
Matricaria inodora [11]; 320 g/ha
  Pre-emergence action against MATIN: 100%
Veronica persica [12]
  Post-emergence action against VERPE in %: 100%
Polygonum convolvulus [13]
  Post-emergence action against POLCO in %: 100%
Avena fatua [14]; 5 g/ha
  Post-emergence action against AVEFA in %: 80%
Avena fatua [14]; 20 g/ha
  Post-emergence action against AVEFA in %: 100%
Avena fatua [14]; 80 g/ha
  Post-emergence action against AVEFA in %: 100%
Pharbitis purpurea [15]; 5 g/ha
  Post-emergence action against PHBPU in %: 80%
Pharbitis purpurea [15]; 20 g/ha
  Post-emergence action against PHBPU in %: 90%
Pharbitis purpurea [15]; 80 g/ha
  Post-emergence action against PHBPU in %: 90%
Hordeum murinum [16]; 80 g/ha
  Pre-emergence action against HORMU: 80%
Hordeum murinum [16]; 320 g/ha
  Pre-emergence action against HORMU: 90%
Alopecurus myosuroides [17]; 5 g/ha
  Post-emergence action against ALOMY: 90%
Alopecurus myosuroides [17]; 20 g/ha
  Post-emergence action against ALOMY: 100%
Alopecurus myosuroides [17]; 80 g/ha
  Post-emergence action against ALOMY: 100%
Pharbitis purpurea [18]; 80 g/ha
  Pre-emergence action against PHBPU: 80%
Pharbitis purpurea [18]; 320 g/ha
  Pre-emergence action against PHBPU: 90%
Cyperus esculentus [19]; 20 g/ha
  Pre-emergence action against CYPES: 100%
Cyperus esculentus [19]; 80 g/ha
  Pre-emergence action against CYPES: 100%
Cyperus esculentus [19]; 320 g/ha
  Pre-emergence action against CYPES: 100%
Alopecurus myosuroides [20]; 80 g/ha
  Pre-emergence action against ALOMY: 80%
Alopecurus myosuroides [20]; 320 g/ha
  Pre-emergence action against ALOMY: 90%
Abutilon theophrasti [21]; 5 g/ha
  Post-emergence action against ABUTH: 100%
Abutilon theophrasti [21]; 20 g/ha
  Post-emergence action against ABUTH: 100%
Abutilon theophrasti [21]; 80 g/ha
  Post-emergence action against ABUTH: 100%
Amaranthus retroflexus [22]; 5 g/ha
  Post-emergence action against AMARE in %: 100%
Amaranthus retroflexus [22]; 20 g/ha
  Post-emergence action against AMARE in %: 100%
Amaranthus retroflexus [22]; 80 g/ha
  Post-emergence action against AMARE in %: 100%
Viola tricolor [23]; 5 g/ha
  Post-emergence action against VIOTR in %: 100%
Viola tricolor [23]; 20 g/ha
  Post-emergence action against VIOTR in %: 100%
Viola tricolor [23]; 80 g/ha
  Post-emergence action against VIOTR in %: 100%
Lolium rigidum [24]; 20 g/ha
  Post-emergence action against LOLRI in %: 90%
Lolium rigidum [24]; 80 g/ha
  Post-emergence action against LOLRI in %: 100%
Hordeum murinum [25]; 20 g/ha
  Post-emergence action against HORMU in %: 90%
Hordeum murinum [25]; 80 g/ha
  Post-emergence action against HORMU in %: 100%
Abutilon theophrasti [26]; 20 g/ha
  Pre-emergence action against ABUTH: 100%
Abutilon theophrasti [26]; 80 g/ha
  Pre-emergence action against ABUTH: 100%
Abutilon theophrasti [26]; Dosage column 320 g/ha (heading prints 3200 g/ha)
  Pre-emergence action against ABUTH: 100%
Lolium rigidum [27]
  Pre-emergence action against LOLRI: 90%
Echinochloa crus-galli [28]; 20 g/ha
  Post-emergence action against ECHCG in %: 100%
Echinochloa crus-galli [28]; 80 g/ha
  Post-emergence action against ECHCG in %: 100%
Stellaria media [29]; 5 g/ha
  Post-emergence action against STEME in %: 100%
Stellaria media [29]; 20 g/ha
  Post-emergence action against STEME in %: 100%
Stellaria media [29]; 80 g/ha
  Post-emergence action against STEME in %: 100%
Cyperus esculentus [30]
  Post-emergence action against CYPES in %: 90%
